Literature values in patent publication US7847120B2, “Compositions of allosteric hemoglobin modifiers and methods of making the same” (Virginia Commonwealth University Intellectual Property …, priority 2004, dated 2010).

Assays:
tissue oxygenation = details: in vivo
[1] = tested on: EMT6 mouse mammary tumors; details: efaproxiral plus oxygen breathing, Rockwell and Kelley 1998
mouse fibrosarcoma tumor = details: combination of efaproxiral and radiation relative to radiation alone

radiation effects in normal tissues ([1]; normal tissues): absence of enhanced radiation effects
Compound: Cc1cc(C)cc(NC(=O)Cc2ccc(OC(C)(C)C(=O)O)cc2)c1 [efaproxiral, 2-[4-((((3,5-dimethylphenyl)amino)carbonyl)methyl)phenoxy]-2-methyl propionic acid]
tissue oxygenation (tissue oxygenation): enhance tissue oxygenation in vivo
effect of radiation in tumors ([1]; EMT6 mouse mammary tumors): Enhancement of the effect of radiation was observed
tumor growth (mouse fibrosarcoma tumor): reduced
